Results taken from ChEMBL document CHEMBL1201862, “PubChem BioAssay data set” (2004).
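Briefly, cells in 96-well plates were exposed to five compound concentrations for 48 h, and endpoints were estimated by linear interpolation. GI50 = concentration required for 50% inhibition of growth.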 Active and inactive are the calls of the source. Cut-off read from the data, not from the text of the source: active = GI50 up to about 1.1 µM and inactive = higher.

Legend:
Assay in all cases: inhibition of tumour cell growth, NCI panel, 48 h
COLO 205 = system: COLO 205
DU-145 = system: DU-145
SF-268 = system: SF-268
MDA-MB-435 = system: MDA-MB-435
ACHN = system: ACHN
SK-MEL-2 = system: SK-MEL-2
HCC 2998 = system: HCC 2998
UACC-62 = system: UACC-62
HT-29 = system: HT-29
NCI-H522 = system: NCI-H522
MOLT-4 = system: MOLT-4
SF-295 = system: SF-295
UACC-257 = system: UACC-257
M14 = system: M14
NCI-H460 = system: NCI-H460
HCT-15 = system: HCT-15
A549 = system: A549
OVCAR-5 = system: OVCAR-5
SR = system: SR
SN12C = system: SN12C

**Q.** How did the GI50 (COLO 205) turn out when `Cc1cc(-c2ccc(C(=O)O)[nH]2)on1` was run?
**A.** 22.3 µM (inactive)

**Q.** And the GI50 (DU-145)?
**A.** 62.4 µM (inactive)

**Q.** What about the GI50 (SF-268) of the same compound?
**A.** > 100 µM (inactive)

**Q.** What about the GI50 (MDA-MB-435) of the same compound?
**A.** 6.98 µM (inactive)

**Q.** And the GI50 (ACHN)?
**A.** > 100 µM (inactive)

**Q.** What about the GI50 (SK-MEL-2) of the same compound?
**A.** 88.5 µM (inactive)

**Q.** What about the GI50 (HCC 2998) of the same compound?
**A.** 55 µM (inactive)

**Q.** And the GI50 (UACC-62)?
**A.** 48 µM (inactive)

**Q.** And the GI50 (HT-29)?
**A.** 27.1 µM (inactive)

**Q.** And the GI50 (NCI-H522)?
**A.** 29 µM (inactive)

**Q.** What about the GI50 (MOLT-4) of the same compound?
**A.** > 100 µM (inactive)

**Q.** And the GI50 (SF-295)?
**A.** 47.3 µM (inactive)

**Q.** What about the GI50 (UACC-257) of the same compound?
**A.** > 100 µM (inactive)

**Q.** And the GI50 (M14)?
**A.** 52 µM (inactive)

**Q.** And the GI50 (NCI-H460)?
**A.** 40.6 µM (inactive)

**Q.** What about the GI50 (HCT-15) of the same compound?
**A.** 20.2 µM

**Q.** What about the GI50 (A549) of the same compound?
**A.** 34.8 µM (inactive)

**Q.** What about the GI50 (OVCAR-5) of the same compound?
**A.** 74.1 µM (inactive)

**Q.** `COc1ccc(C2=CC(c3ccccc3)n3nnnc3N2)cc1` (stereo not drawn) was tested. Which GI50 (COLO 205) did it give?
**A.** > 100 µM (inactive)

**Q.** What about the GI50 (DU-145) of the same compound?
**A.** > 100 µM (inactive)

**Q.** What about the GI50 (SF-268) of the same compound?
**A.** 74 µM (inactive)

**Q.** What about the GI50 (MDA-MB-435) of the same compound?
**A.** > 100 µM (inactive)

**Q.** What about the GI50 (ACHN) of the same compound?
**A.** > 100 µM (inactive)

**Q.** What about the GI50 (SK-MEL-2) of the same compound?
**A.** > 100 µM (inactive)

**Q.** And the GI50 (UACC-62)?
**A.** > 100 µM (inactive)

**Q.** And the GI50 (HT-29)?
**A.** > 100 µM (inactive)

**Q.** And the GI50 (NCI-H522)?
**A.** > 100 µM (inactive)

**Q.** And the GI50 (MOLT-4)?
**A.** > 100 µM (inactive)

**Q.** And the GI50 (SF-295)?
**A.** 52.2 µM (inactive)

**Q.** What about the GI50 (SR) of the same compound?
**A.** > 100 µM (inactive)

**Q.** What about the GI50 (UACC-257) of the same compound?
**A.** > 100 µM (inactive)

**Q.** What about the GI50 (M14) of the same compound?
**A.** > 100 µM (inactive)

**Q.** What about the GI50 (NCI-H460) of the same compound?
**A.** > 100 µM (inactive)

**Q.** What about the GI50 (HCT-15) of the same compound?
**A.** > 100 µM

**Q.** And the GI50 (A549)?
**A.** > 100 µM (inactive)

**Q.** What about the GI50 (SN12C) of the same compound?
**A.** > 100 µM (inactive)

**Q.** What about the GI50 (OVCAR-5) of the same compound?
**A.** > 100 µM (inactive)

**Q.** `CCOC(=O)CC1CCN(C(=O)c2ccccc2)C2Cc3c([nH]c4ccccc34)C12C[N+](=O)[O-]` (stereo not drawn) was tested. Which GI50 (COLO 205) did it give?
**A.** 61 µM (inactive)

**Q.** And the GI50 (DU-145)?
**A.** > 100 µM (inactive)

**Q.** What about the GI50 (SF-268) of the same compound?
**A.** > 100 µM (inactive)

**Q.** And the GI50 (MDA-MB-435)?
**A.** 97.3 µM (inactive)

**Q.** And the GI50 (ACHN)?
**A.** 67 µM (inactive)

**Q.** What about the GI50 (SK-MEL-2) of the same compound?
**A.** > 100 µM (inactive)

**Q.** And the GI50 (UACC-62)?
**A.** 58.7 µM (inactive)

**Q.** And the GI50 (HT-29)?
**A.** 62.2 µM (inactive)

**Q.** What about the GI50 (NCI-H522) of the same compound?
**A.** > 100 µM (inactive)

**Q.** What about the GI50 (MOLT-4) of the same compound?
**A.** 35 µM (inactive)

**Q.** What about the GI50 (SF-295) of the same compound?
**A.** 40.5 µM (inactive)

**Q.** And the GI50 (SR)?
**A.** 39.8 µM (inactive)

**Q.** And the GI50 (UACC-257)?
**A.** > 100 µM (inactive)

**Q.** And the GI50 (M14)?
**A.** 63.2 µM (inactive)

**Q.** And the GI50 (NCI-H460)?
**A.** 65.6 µM (inactive)

**Q.** What about the GI50 (HCT-15) of the same compound?
**A.** 95.7 µM

**Q.** What about the GI50 (SN12C) of the same compound?
**A.** > 100 µM (inactive)

**Q.** And the GI50 (OVCAR-5)?
**A.** > 100 µM (inactive)

**Q.** For `O=[N+]([O-])C(Cl)=C/C(=C(\Cl)SCc1ccccc1)[N+](=O)[O-]`, which GI50 (COLO 205) is on record?
**A.** 17.8 µM (inactive)

**Q.** What about the GI50 (DU-145) of the same compound?
**A.** 31.4 µM (inactive)

**Q.** What about the GI50 (SF-268) of the same compound?
**A.** 28.6 µM (inactive)

**Q.** And the GI50 (MDA-MB-435)?
**A.** 18.5 µM (inactive)

**Q.** And the GI50 (ACHN)?
**A.** 17 µM (inactive)

**Q.** What about the GI50 (SK-MEL-2) of the same compound?
**A.** 21.5 µM (inactive)

**Q.** What about the GI50 (HCC 2998) of the same compound?
**A.** 30.6 µM (inactive)

**Q.** And the GI50 (UACC-62)?
**A.** 28.9 µM (inactive)

**Q.** What about the GI50 (HT-29) of the same compound?
**A.** 24.7 µM (inactive)

**Q.** And the GI50 (NCI-H522)?
**A.** 20.7 µM (inactive)

**Q.** What about the GI50 (MOLT-4) of the same compound?
**A.** 17.7 µM (inactive)

**Q.** What about the GI50 (SF-295) of the same compound?
**A.** 28.6 µM (inactive)

**Q.** What about the GI50 (UACC-257) of the same compound?
**A.** 29 µM (inactive)

**Q.** And the GI50 (M14)?
**A.** 20 µM (inactive)

**Q.** And the GI50 (NCI-H460)?
**A.** 28.2 µM (inactive)

**Q.** What about the GI50 (HCT-15) of the same compound?
**A.** 18.2 µM

**Q.** What about the GI50 (A549) of the same compound?
**A.** 24.8 µM (inactive)

**Q.** What about the GI50 (SN12C) of the same compound?
**A.** 18.2 µM (inactive)

**Q.** And the GI50 (OVCAR-5)?
**A.** 23.7 µM (inactive)

**Q.** What does the source list for `C[n+]1c2ccccc2c(C(=O)Nc2ccc(S(=O)(=O)N=C(N)N)cc2)c2ccccc21`?
**A.** GI50 (COLO 205): > 100 µM (inactive); GI50 (DU-145): > 100 µM (inactive); GI50 (SF-268): > 100 µM (inactive); GI50 (MDA-MB-435): > 100 µM (inactive); GI50 (ACHN): > 100 µM (inactive); GI50 (SK-MEL-2): > 100 µM (inactive); GI50 (HCC 2998): > 100 µM (inactive); GI50 (UACC-62): > 100 µM (inactive); GI50 (HT-29): > 100 µM (inactive); GI50 (NCI-H522): > 100 µM (inactive); GI50 (MOLT-4): 25.5 µM (inactive); GI50 (SF-295): > 100 µM (inactive); GI50 (UACC-257): > 100 µM (inactive); GI50 (M14): > 100 µM (inactive); GI50 (NCI-H460): > 100 µM (inactive); GI50 (HCT-15): > 100 µM; GI50 (A549): > 100 µM (inactive); GI50 (SN12C): > 100 µM (inactive); GI50 (OVCAR-5): > 100 µM (inactive)
